The values that follow come from patent US20250353864A1, “INDAZOLE CONTAINING MACROCYCLES AND THEIR USE” (BLOSSOMHILL THERAPEUTICS, INC., priority 2022, published 2025).

Holding throughout (type): biochemical
One assay deals with EGFR (D770_N771insNPG) (Homo sapiens (Human), UniProt P00533, INS770NPG). As to the kind of experiment: HotSpot radiometric kinase assay, EGFR (D770_N771insNPG). Conditions: 10 μM ATP, read-out: EGFR (Δ770_N771insNPG) IC50. Put shortly: (§1)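 Enzyme and substrate pairs were exposed to inhibitor for roughly 20 min before radiolabelled ATP (10 μM final) was introduced; the reaction proceeded 120 min at ambient temperature in pH 7.5 buffer with 1% DMSO, and phosphorylated product was captured on P81 filters for IC50 determination.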

Another assay addresses EGFR L858R/T790M mutant (Homo sapiens (Human), UniProt P00533, L858R/T790M). The assay can be described thus: HotSpot radiometric kinase assay, EGFR L858R/T790M mutant. Conditions: 10 μM ATP. Put shortly:
as §1

Assay [1] has as its target EGFR Δ746-750/C797S mutant (Homo sapiens (Human), UniProt P00533, C797S/DEL746-750). As to the kind of experiment: HotSpot radiometric kinase assay, EGFR Δ746-750/C797S mutant. To be noted: 10 μM ATP. Put shortly: as §1
Assay [2] addresses EGFR L858R/T790M/C797S mutant (Homo sapiens (Human), UniProt P00533, C797S/L858R/T790M). As to the kind of experiment: HotSpot radiometric kinase assay, EGFR L858R/T790M/C797S mutant. To be noted: 10 μM ATP. The essentials:
as §1

The next assay addresses EGFR WT (Homo sapiens (Human), UniProt P00533). As to the kind of experiment: HotSpot radiometric kinase assay (Reaction Biology), EGFR WT. To be noted: 10 μM ATP. Put shortly:
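10 μM ATP (33P-labelled, final); 120 min RT; P81 filter capture, 0.75% phosphoric acid washes. Cpd preincubated ~20 min with enzyme/substrate, 20 mM Hepes pH 7.5, 10 mM MgCl2, 1% DMSO. IC50 by curve fit.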

The next assay deals with EGFR L858R mutant (Homo sapiens (Human), UniProt P00533, L858R). The assay can be described thus: HotSpot radiometric kinase assay, EGFR L858R mutant. Conditions: 10 μM ATP. Put shortly: as §1
In the next assay the target is EGFR Δ746-750 mutant (Homo sapiens (Human), UniProt P00533, DEL746-750). The assay can be described thus: HotSpot radiometric kinase assay, EGFR Δ746-750 mutant. Conditions: 10 μM ATP. Put shortly: as §1
EGFR Δ746-750 mutant, sequence (P00533 other isoform, or with tags, fused parts or gaps del 1-668/del 746-750 limits assumed): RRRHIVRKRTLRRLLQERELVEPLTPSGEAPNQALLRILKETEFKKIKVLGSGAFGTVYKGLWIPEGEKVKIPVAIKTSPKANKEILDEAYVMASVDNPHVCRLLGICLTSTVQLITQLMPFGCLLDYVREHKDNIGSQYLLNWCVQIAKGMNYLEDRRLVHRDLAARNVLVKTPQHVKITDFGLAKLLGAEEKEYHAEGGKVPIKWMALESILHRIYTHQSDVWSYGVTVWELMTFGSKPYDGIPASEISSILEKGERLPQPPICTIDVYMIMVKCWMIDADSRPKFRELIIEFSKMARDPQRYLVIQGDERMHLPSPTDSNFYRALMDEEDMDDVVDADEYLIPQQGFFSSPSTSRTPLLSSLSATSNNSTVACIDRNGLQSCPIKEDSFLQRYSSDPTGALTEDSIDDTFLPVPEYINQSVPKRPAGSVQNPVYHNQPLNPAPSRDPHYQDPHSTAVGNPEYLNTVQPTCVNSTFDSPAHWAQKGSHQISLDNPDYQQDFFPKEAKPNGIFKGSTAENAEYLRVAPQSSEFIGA

EGFR Δ746-750/C797S mutant, sequence (P00533 other isoform, or with tags, fused parts or gaps C797S/del 1-668/del 746-750 limits assumed): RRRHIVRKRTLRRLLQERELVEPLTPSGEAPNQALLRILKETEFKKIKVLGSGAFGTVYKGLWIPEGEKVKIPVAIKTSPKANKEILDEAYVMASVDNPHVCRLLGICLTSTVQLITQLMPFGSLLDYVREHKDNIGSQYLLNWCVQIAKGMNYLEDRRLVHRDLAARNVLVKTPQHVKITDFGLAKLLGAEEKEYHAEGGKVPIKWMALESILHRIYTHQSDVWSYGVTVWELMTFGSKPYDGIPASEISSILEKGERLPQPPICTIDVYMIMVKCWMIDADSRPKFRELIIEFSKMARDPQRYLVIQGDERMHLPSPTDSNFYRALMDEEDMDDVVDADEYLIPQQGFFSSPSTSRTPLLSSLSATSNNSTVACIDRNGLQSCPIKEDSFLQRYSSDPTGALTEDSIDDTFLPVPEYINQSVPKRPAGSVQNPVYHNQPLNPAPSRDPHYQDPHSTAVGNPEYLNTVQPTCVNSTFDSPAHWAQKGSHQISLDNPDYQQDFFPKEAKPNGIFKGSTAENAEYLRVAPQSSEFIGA
EGFR L858R mutant, sequence (P00533 25-1210 L858R): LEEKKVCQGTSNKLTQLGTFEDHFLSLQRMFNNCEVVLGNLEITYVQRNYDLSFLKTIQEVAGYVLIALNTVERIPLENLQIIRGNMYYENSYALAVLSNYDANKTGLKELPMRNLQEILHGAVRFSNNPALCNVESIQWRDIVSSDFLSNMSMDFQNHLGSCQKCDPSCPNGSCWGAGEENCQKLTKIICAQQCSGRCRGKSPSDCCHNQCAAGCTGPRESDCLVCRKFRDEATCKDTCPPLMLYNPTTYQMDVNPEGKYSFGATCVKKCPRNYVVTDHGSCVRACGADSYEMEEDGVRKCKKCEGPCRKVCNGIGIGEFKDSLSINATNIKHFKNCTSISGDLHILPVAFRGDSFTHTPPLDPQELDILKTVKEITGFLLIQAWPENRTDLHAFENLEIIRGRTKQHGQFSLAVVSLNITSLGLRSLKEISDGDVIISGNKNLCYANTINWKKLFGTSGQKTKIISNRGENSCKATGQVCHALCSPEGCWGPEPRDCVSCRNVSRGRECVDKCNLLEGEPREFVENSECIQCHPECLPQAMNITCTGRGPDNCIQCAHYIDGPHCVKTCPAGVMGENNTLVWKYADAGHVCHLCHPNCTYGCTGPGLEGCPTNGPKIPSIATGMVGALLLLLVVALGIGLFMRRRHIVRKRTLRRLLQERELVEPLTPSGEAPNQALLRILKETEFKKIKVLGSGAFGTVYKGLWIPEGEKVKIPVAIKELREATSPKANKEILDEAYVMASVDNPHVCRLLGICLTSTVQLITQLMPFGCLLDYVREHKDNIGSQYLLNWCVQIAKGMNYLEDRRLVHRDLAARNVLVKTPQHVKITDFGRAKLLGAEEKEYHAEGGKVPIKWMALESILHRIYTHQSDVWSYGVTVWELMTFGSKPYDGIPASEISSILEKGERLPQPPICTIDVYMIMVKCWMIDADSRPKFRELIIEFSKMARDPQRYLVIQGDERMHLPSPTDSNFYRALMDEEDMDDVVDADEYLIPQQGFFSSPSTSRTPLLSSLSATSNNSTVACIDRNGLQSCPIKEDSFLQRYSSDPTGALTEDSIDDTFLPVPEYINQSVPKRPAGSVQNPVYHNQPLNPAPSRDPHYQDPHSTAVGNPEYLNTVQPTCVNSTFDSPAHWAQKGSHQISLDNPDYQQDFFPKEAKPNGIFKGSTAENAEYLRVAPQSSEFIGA
EGFR L858R/T790M/C797S mutant, sequence (P00533 25-1210 T790M/C797S/L858R): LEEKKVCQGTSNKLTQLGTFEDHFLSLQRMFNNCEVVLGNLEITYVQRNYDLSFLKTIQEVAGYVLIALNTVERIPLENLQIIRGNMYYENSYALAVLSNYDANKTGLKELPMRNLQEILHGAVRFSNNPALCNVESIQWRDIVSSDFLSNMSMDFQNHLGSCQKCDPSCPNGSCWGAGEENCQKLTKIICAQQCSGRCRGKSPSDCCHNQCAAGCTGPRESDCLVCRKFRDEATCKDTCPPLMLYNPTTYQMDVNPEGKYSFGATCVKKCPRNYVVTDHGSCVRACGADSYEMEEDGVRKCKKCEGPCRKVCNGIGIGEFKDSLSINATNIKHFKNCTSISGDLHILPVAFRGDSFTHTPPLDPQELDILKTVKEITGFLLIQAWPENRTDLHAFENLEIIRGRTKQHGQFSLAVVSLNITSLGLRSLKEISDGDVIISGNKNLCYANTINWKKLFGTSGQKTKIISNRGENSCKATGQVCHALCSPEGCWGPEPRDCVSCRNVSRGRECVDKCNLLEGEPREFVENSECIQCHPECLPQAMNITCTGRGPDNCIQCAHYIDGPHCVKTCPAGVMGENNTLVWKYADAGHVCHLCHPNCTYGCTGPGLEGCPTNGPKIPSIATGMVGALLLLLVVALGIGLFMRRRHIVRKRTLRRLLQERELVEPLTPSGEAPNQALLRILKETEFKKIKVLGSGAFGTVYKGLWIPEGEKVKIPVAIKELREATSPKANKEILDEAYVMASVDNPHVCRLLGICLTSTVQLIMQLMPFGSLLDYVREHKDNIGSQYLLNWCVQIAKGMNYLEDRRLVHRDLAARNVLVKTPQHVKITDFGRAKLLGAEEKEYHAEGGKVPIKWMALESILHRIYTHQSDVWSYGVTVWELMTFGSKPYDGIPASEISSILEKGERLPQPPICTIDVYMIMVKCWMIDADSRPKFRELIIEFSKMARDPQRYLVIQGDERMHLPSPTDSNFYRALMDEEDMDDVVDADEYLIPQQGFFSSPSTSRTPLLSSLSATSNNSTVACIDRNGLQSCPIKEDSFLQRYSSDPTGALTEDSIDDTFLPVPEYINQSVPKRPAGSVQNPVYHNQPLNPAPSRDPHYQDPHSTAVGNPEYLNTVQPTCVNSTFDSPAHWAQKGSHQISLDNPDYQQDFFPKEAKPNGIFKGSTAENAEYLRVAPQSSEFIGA
EGFR WT, sequence (P00533 25-1210): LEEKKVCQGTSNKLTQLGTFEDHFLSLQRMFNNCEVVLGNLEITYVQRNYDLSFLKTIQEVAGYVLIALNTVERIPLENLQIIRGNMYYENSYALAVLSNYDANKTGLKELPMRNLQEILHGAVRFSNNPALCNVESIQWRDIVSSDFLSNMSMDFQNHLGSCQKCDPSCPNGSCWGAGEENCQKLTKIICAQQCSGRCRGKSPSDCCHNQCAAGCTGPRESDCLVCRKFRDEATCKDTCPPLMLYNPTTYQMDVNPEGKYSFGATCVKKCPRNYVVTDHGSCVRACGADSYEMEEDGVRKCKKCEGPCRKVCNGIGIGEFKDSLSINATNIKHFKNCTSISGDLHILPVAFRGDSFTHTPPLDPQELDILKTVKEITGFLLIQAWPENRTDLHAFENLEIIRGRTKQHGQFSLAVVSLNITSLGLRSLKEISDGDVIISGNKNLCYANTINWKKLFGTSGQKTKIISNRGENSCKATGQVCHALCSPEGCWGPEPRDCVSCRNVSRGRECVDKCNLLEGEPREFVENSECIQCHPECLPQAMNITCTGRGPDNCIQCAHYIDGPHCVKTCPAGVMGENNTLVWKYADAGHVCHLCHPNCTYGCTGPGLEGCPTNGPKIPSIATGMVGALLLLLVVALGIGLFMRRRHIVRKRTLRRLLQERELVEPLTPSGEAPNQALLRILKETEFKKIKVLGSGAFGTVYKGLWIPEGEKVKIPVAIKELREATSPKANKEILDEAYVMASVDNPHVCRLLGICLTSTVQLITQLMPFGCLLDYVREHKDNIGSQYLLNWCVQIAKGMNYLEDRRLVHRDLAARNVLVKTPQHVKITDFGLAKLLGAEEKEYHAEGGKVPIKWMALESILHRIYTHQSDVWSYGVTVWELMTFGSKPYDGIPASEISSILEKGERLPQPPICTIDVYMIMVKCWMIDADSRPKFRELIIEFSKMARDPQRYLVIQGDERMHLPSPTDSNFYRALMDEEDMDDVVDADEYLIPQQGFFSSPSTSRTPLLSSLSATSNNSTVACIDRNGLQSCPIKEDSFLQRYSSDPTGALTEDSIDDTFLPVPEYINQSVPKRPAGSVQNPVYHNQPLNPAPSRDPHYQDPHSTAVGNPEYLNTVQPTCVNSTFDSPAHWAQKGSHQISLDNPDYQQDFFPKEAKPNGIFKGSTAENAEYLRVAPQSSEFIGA

In general, IC50 refers to the point on the concentration scale where inhibition reaches its midpoint. For the compound `Cc1c2c(nn1C1CCN(C)C1)OCCN(C)Cc1c(cnn1C)-c1ccc3[nH]nc(c3c1)/C=C/2` (centres unmarked) [Example 117, (17E)-8,10,16-trimethyl-14-(1-methylpyrrolidin-3-yl)-2,9,10,11,12,14-hexahydro-8H-3,5-ethenotripyrazolo[3,4-f:4′,3′-j:4″,3″-n][1,4]oxazacyclopentadecine], the 50% inhibitory concentration (IC50) at EGFR (D770_N771insNPG) stood at 53.5 nM; at EGFR L858R/T790M mutant, 2.2 nM; in assay [1], 8.36 nM; in assay [2] it was 6.18 nM; at EGFR WT it was 70.1 nM; against EGFR L858R mutant, 20 nM. Half-maximal inhibition on EGFR Δ746-750 mutant (IC50) was put at 6.91 nM.

In the case of `Cc1nn(C2CCN(C)C2)c2c1/C=C/c1n[nH]c3ccc(cc13)-c1cnn(C)c1CN(C)CCO2` (centres unmarked) [Example 118, (17E)-8,10,16-trimethyl-14-(1-methylpyrrolidin-3-yl)-2,9,10,11,12,14-hexahydro-8H-3,5-ethenotripyrazolo[3,4-f:4′,3′-j:4″,3″-n][1,4]oxazacyclopentadecine], the IC50 on EGFR (D770_N771insNPG) is 65.7 nM; at EGFR L858R/T790M mutant it was 4.65 nM; in assay [1], 31.7 nM; in assay [2], 8.42 nM; at EGFR WT it was 130 nM; at EGFR L858R mutant, 34.4 nM. Inhibition on EGFR Δ746-750 mutant was half-maximal at 21.1 nM (IC50).

For `Cc1c2c(nn1CCN1CCCC1)CN(C)C[C@@H](C)Oc1c(cnn1C)-c1ccc3[nH]nc(c3c1)/C=C/2` [Example 121, (10R,17E)-8,10,12,16-tetramethyl-15-[2-(pyrrolidin-1-yl)ethyl]-2,10,11,12,13,15-hexahydro-8H-3,5-ethenotripyrazolo[3,4-f:3′,4′-j:4″,3″- n][1,4]oxazacyclopentadecine], the IC50 came to 283 nM on EGFR (D770_N771insNPG); 6.14 nM against EGFR L858R/T790M mutant; 41.3 nM in assay [1]; 13 nM in assay [2]; 296 nM against EGFR WT; 94.1 nM at EGFR L858R mutant. The IC50 against EGFR Δ746-750 mutant was found to be 40.7 nM.

Take `Cc1nn(C[C@@H](C)O)c2c1/C=C/c1n[nH]c3ccc(cc13)-c1cnn(C)c1O[C@@H](C)CN(C)C2` [Example 127, (2R)-1-[(10S,17E)-8,10,12,16-tetramethyl-2,8,10,11,12,13-hexahydro-14H-3,5-ethenotripyrazolo[3,4-f:3′,4′-j:4″,3″-n][1,4]oxazacyclopentadecin-14-yl]propan-2-ol]: the concentration for half-maximal inhibition (IC50) came to 25.6 nM on EGFR (D770_N771insNPG); 0.15 nM on EGFR L858R/T790M mutant; 0.85 nM in assay [1]; 0.43 nM in assay [2]; 11.1 nM against EGFR WT; 1.81 nM against EGFR L858R mutant. Also, 2.82 nM corresponded to half-maximal inhibition on EGFR Δ746-750 mutant (IC50).

On to `Cc1c2c(nn1C[C@@H](C)O)CN(C)C[C@H](C)Oc1c(cnn1C)-c1ccc3[nH]nc(c3c1)/C=C/2` [Example 128, (2R)-1-[(10S,17E)-8,10,12,16-tetramethyl-2,8,10,11,12,13-hexahydro-15H-3,5-ethenotripyrazolo[3,4-f:3′,4′-j:4″,3″-n][1,4]oxazacyclopentadecin-15-yl]propan-2-ol], for which the IC50 worked out at 383 nM on EGFR (D770_N771insNPG); 0.77 nM on EGFR L858R/T790M mutant; 15.2 nM in assay [1]; 1.01 nM in assay [2]; 264 nM at EGFR WT; 21.9 nM against EGFR L858R mutant. The IC50 at EGFR Δ746-750 mutant was found to be 33.7 nM.

As for `CCc1nn(CCO)c2c1/C=C/c1n[nH]c3ccc(cc13)-c1cnn(C)c1O[C@@H](C)CN(C)C2` [Example 129, 2-[(10S,17E)-16-ethyl-8,10,12-trimethyl-2,8,10,11,12,13-hexahydro-14H-3,5-ethenotripyrazolo[3,4-f:3′,4′-j:4″,3″-n][1,4]oxazacyclopentadecin-14-yl]ethan-1-ol], the half-inhibitory concentration (IC50) on EGFR (D770_N771insNPG) turned out to be 6.5 nM; on EGFR L858R/T790M mutant it was 0.09 nM; in assay [1] it was 0.4 nM; in assay [2] it was 0.33 nM; on EGFR WT, 3.02 nM; against EGFR L858R mutant, 0.47 nM. In addition, on EGFR Δ746-750 mutant, 0.58 nM corresponded to half-maximal inhibition (IC50).

Take `Cc1nn(C)c2c1CN(C)C[C@H](C)Oc1c(cnn1C)-c1ccc3[nH]nc(c3c1)/C=C/2` [Example 130, (10S,17E)-8,10,12,14,16-pentamethyl-2,10,11,12,13,16-hexahydro-8H-3,5-ethenotripyrazolo[4,3-f:3′,4′-j:4″,3″- n][1,4]oxazacyclopentadecine]: the IC50 on EGFR (D770_N771insNPG) came out at 851 nM; against EGFR L858R/T790M mutant, 7.32 nM; in assay [1], 38.4 nM; in assay [2] it was 5.66 nM; at EGFR WT it was 457 nM; at EGFR L858R mutant it was 84.3 nM. The same compound came in with an IC50 against EGFR Δ746-750 mutant of 81.1 nM.

Regarding `CCN1Cc2c(c(C)nn2CCO)/C=C/c2n[nH]c3ccc(cc23)-c2cnn(C)c2O[C@@H](C)C1` [Example 133, v2-[(10S,17E)-12-ethyl-8,10,16-trimethyl-2,8,10,11,12,13-hexahydro-14H-3,5-ethenotripyrazolo[3,4-f:3′,4′-j:4″,3″-n][1,4]oxazacyclopentadecin-14-yl]ethan-1-ol], the half-inhibitory concentration (IC50) at EGFR (D770_N771insNPG) is 1.62 nM; on EGFR L858R/T790M mutant, 0.07 nM; in assay [1], 0.35 nM; in assay [2], 0.24 nM; against EGFR WT it was 0.54 nM; against EGFR L858R mutant, 0.09 nM. At EGFR Δ746-750 mutant, the 50% inhibitory concentration (IC50) is 0.12 nM.

`Cn1ncc2c1OCCN1CC[C@@H](Oc3ccc(C(C)(C)O)cc3/C=C/c3n[nH]c4ccc-2cc34)C1=O` [Example 135, (10R,16E)-14-(2-hydroxypropan-2-yl)-3-methyl-3,5,6,9,10,19-hexahydro-8H-20,22-etheno-7,10-methanodipyrazolo[3,4-i:4′,3′-m][1,8,5]benzodioxazacyclooctadecin-25-one]: the IC50 on EGFR (D770_N771insNPG) stood at 802 nM; at EGFR L858R/T790M mutant, 20 nM; in assay [1] it was 97.7 nM; in assay [2] it was 38.6 nM; on EGFR WT, 829 nM; on EGFR L858R mutant, 128 nM. Besides, at EGFR Δ746-750 mutant, it took 48.3 nM to reach half-maximal inhibition (IC50).

As to `C[C@H]1CN(C)Cc2c(c(OC3CCNCC3)nn2C)/C=C/c2n[nH]c3ccc(cc23)-c2cnn(C)c2O1` [Example 136, (10S,17E)-8,10,12,14-tetramethyl-16-[(piperidin-4-yl)oxy]-2,10,11,12,13,14-hexahydro-8H-3,5-ethenotripyrazolo[3,4-f:3′,4′-j:4″,3″-n][1,4]oxazacyclopentadecine], the IC50 at EGFR (D770_N771insNPG) was found to be 334 nM; against EGFR L858R/T790M mutant, 0.8 nM; in assay [1] it was 12.1 nM; in assay [2] it was 1.54 nM; at EGFR WT it was 103 nM; against EGFR L858R mutant, 14.6 nM. For the same compound, half-maximal inhibition on EGFR Δ746-750 mutant (IC50) required 15.2 nM.

As for `Cc1nn(CCO)c2c1/C=C/c1n[nH]c3ccc(cc13)-c1c(C)nn(C)c1O[C@@H](C)CN(C)C2` [Example 138, 2-[(10S,17E)-6,8,10,12,16-pentamethyl-2,8,10,11,12,13-hexahydro-14H-3,5-ethenotripyrazolo[3,4-f:3′,4′-j:4″,3″-n][1,4]oxazacyclopentadecin-14-yl]ethan-1-o], the half-maximal inhibitory concentration (IC50) on EGFR (D770_N771insNPG) was 85.2 nM; on EGFR L858R/T790M mutant, 0.61 nM; in assay [1], 1.4 nM; in assay [2] it was 0.55 nM; against EGFR WT, 23.8 nM; against EGFR L858R mutant, 3.5 nM. Further, 3.64 nM corresponded to half-maximal inhibition against EGFR Δ746-750 mutant (IC50).

`Cc1nn(C)c2c1/C=C/c1n[nH]c3ccc(cc13)-c1cnn(C)c1O[C@@H](C)CN(C1COC1)C2` [Example 140, (10S,17E)-8,10,14,16-tetramethyl-12-(oxetan-3-yl)-2,10,11,12,13,14-hexahydro-8H-3,5-ethenotripyrazolo[3,4-f:3′,4′-j:4″,3″-n][1,4]oxazacyclopentadecine]: the IC50 worked out at 186 nM at EGFR (D770_N771insNPG); 1.19 nM at EGFR L858R/T790M mutant; 6.14 nM in assay [1]; 1.3 nM in assay [2]; 84.8 nM on EGFR WT; 11.6 nM at EGFR L858R mutant. At EGFR Δ746-750 mutant, the IC50 was determined as 9.35 nM.

Regarding `C[C@H]1CN(C)Cc2c(c(O)nn2C)/C=C/c2n[nH]c3ccc(cc23)-c2cnn(C)c2O1` [Example 148, (10S,17E)-8,10,12,14-tetramethyl-2,10,11,12,13,14-hexahydro-8H-3,5-ethenotripyrazolo[3,4-f:3′,4′-j:4″,3″-n][1,4]oxazacyclopentadecin-16-ol], the half-maximal inhibitory concentration (IC50) on EGFR (D770_N771insNPG) came out at 403 nM; at EGFR L858R/T790M mutant, 4.25 nM; in assay [1], 23.6 nM; in assay [2] it was 2.77 nM; on EGFR WT it was 372 nM; against EGFR L858R mutant it was 42.4 nM. This compound yielded an IC50 on EGFR Δ746-750 mutant of 35 nM.

On to `C[C@H]1CN(C)Cc2c(c(OC3CN(S(C)(=O)=O)C3)nn2C)/C=C/c2n[nH]c3ccc(cc23)-c2cnn(C)c2O1` [Example 150, (10S,17E)-16-{[1-(methanesulfonyl)azetidin-3-yl]oxy}-8,10,12,14-tetramethyl-2,10,11,12,13,14-hexahydro-8H-3,5-ethenotripyrazolo[3,4-f:3′,4′-j:4″,3″-n][1,4]oxazacyclopentadecine], for which the concentration for half-maximal inhibition (IC50) on EGFR (D770_N771insNPG) came to 33.4 nM; at EGFR L858R/T790M mutant it was 0.45 nM; in assay [1], 2.58 nM; in assay [2], 0.37 nM; against EGFR WT, 6.36 nM; against EGFR L858R mutant, 2.31 nM. Moreover, the half-inhibitory concentration (IC50) at EGFR Δ746-750 mutant turned out to be 3.21 nM.
